Laboratory results reported in patent US12491452B2, “Extraction method and composition obtained therefrom” (NATURALIA INGREDIENTS S.R.L., priority 2018, dated 2025).
Where two headings read alike, the source gives them in different places.

Key:
[1] = cited from earlier work
[2] = cited from earlier work; remark: listed apart in the source
[3] = Stability of CBDA and CBD in inclusion complexes of Eletta Campana CS inflorescence and HP-β-CD in water, HPLC-UV; type: physicochemical; settings: for cannabinoid concentration: HP-β-CD aqueous extract
Protocol: The official method reported in the German Pharmacopoeia of Cannabis Flos (https://www.MonographCannabisFlos.pdf) comprises three extraction and filtering cycles of 500 mg of inflorescence with 20, 12.5 and 12.5 mL of ethanol 96% respectively. The ethanol liquid phase was brought to a volume of 50 mL in a volumetric flask with clean 96% ethanol. Said extract was filtered on a regenerated cellulose filter with pore diameter 0.45 μm. A 1 mL portion was diluted with 9 mL of 96% ethanol for chromatographic analysis. For each cannabinoid a calibration curve was constructed for the quantification thereof within the extracts and in the aqueous formulations of the inclusion complexes with the inflorescence. The calibration curve was constructed with certified standards (Cerilliant Cannabinoid Reference Standards, Cerilliant Corporation, Texas, USA) in a concentration range of 0.25-1.00 μg/mL. The titrations were performed following the method published by Citti et al. [Citti et al., Journal of Pharmaceutical and Biomedical Analysis 2016, 128, 201-209] with the use of high-performance liquid chromatography coupled with a UV detector (HPLC-UV).
After filtering, both the solutions were then transferred to an amber-colored closed container. One container was kept at ambient temperature (25° C.) in the dark and the other in the refrigerator at 8° C. The concentration of the cannabinoids, in the particular example of CBDA and CBD, was measured at different times to verify the stability thereof, analyzing a portion by HPLC-UV. […] The percentage CBDA concentration difference with reference to time 0 is indicated in brackets.

Compound	Solubility in pure water (mg/ml) at approx. 25° C. [1]	cannabinoid concentration ([3]; 8° C., 0 days)	cannabinoid concentration ([3]; 8° C., 14 days)	cannabinoid concentration ([3]; 8° C., 45 days)	cannabinoid concentration ([3]; 8° C., 60 days)	cannabinoid concentration ([3]; 8° C., 100 days)	cannabinoid concentration ([3]; 25° C. in the dark, 0 days)	cannabinoid concentration ([3]; 25° C. in the dark, 14 days)	cannabinoid concentration ([3]; 25° C. in the dark, 45 days)	cannabinoid concentration ([3]; 25° C. in the dark, 60 days)	cannabinoid concentration ([3]; 25° C. in the dark, 100 days)	also measured
2-Hydroxypropyl-γ-cyclodextrin	>500 mg/mL											
2-hydroxypropyl-β-cyclodextrin	>600 mg/mL											
C=C(C)[C@@H]1CCC(C)=C[C@H]1c1c(O)cc(CCCCC)cc1O [CBD, 2-[(1R,6R)-3-methyl-6-(prop-1-en-2-yl)cyclohex-2-enyl]-5-pentylbenzene-1,3-diol, reference compound]		0.16 µg/mL	0.12 µg/mL	0.17 µg/mL	0.14 µg/mL	0.17 µg/mL	0.14 µg/mL	0.56 µg/mL	0.78 µg/mL	1.10 µg/mL	2.93 µg/mL	drop of concentration in water ([2]; infusion without CD, 25° C., period of 7 days): 60%; drop of concentration in water ([2]; tisane without CD kept at 4° C., 7 days): 50%; stability of the formulation (in words) ([3]; formulation kept at 8° C., 100 days): remain surprisingly stable
C=C(C)[C@@H]1CCC(C)=C[C@H]1c1c(O)cc(CCCCC)c(C(=O)O)c1O [CBDA, 2,4-Dihydroxy-3-[(1R,6R)-3-methyl-6-(1-methylethenyl)-2-cyclohexen-1-yl]-6-pentylbenzoic acid]		6.81 µg/mL	6.94 µg/mL	6.91 µg/mL	6.86 µg/mL	6.91 µg/mL	6.45 µg/mL	5.81 µg/mL	4.47 µg/mL	3.38 µg/mL	3.21 µg/mL	time beyond which stability in water is not guaranteed ([2]; infusion without CD, both at 25° C. and at 4° C.): ≤ 14 days; stability of the formulation (in words) [3]: loss (albeit very slow; percentage CBDA concentration difference with reference to time 0 ([3]; 8° C., 14 days): +1.8%; percentage CBDA concentration difference with reference to time 0 ([3]; 8° C., 45 days): +1.4%; percentage CBDA concentration difference with reference to time 0 ([3]; 8° C., 60 days): +0.6%; percentage CBDA concentration difference with reference to time 0 ([3]; 8° C., 100 days): +1.4%; percentage CBDA concentration difference with reference to time 0 ([3]; 25° C., 14 days): −9.9%; percentage CBDA concentration difference with reference to time 0 ([3]; 25° C., 45 days): −30.7%; percentage CBDA concentration difference with reference to time 0 ([3]; 25° C., 60 days): −47.6%; percentage CBDA concentration difference with reference to time 0 ([3]; 25° C., 100 days): −50.1%
Randomly methylated β-Cyclodextrin	>500 mg/mL											
Sodium salt of β-CD sulfobutyl ether	>500 mg/mL											
